Test results published in BindingDB's records for patent US10508109 (ONCOTHERAPY SCIENCE, INC., 2019).

Target: Histone-lysine N-methyltransferase SUV39H2 (Human, UniProt Q9H5I1)
Test: Suv 39H2 Assay
Protocol: Assay buffer (4 μL) was added into all the wells, including test compound and control wells (except for Sinefungin control wells), using the Multidrop Combi. The plate was centrifuged at 1000 rpm for 1 min. […] SUV39H2 (8 μL, final conc: optimized for each lot of the enzyme based on specific activity) was added by using the Multidrop Combi. The assay plate was centrifuged at 1000 rpm for 1 min. Assay buffer was used as background control, and incubated at room temperature for 3 hours. The reaction was stopped with 20 μL of 2.5 mg/mL Streptavidin SPA beads (final conc. 50 μg/well) in buffer using the Multidrop Combi and centrifuged for 1 min. The plate was loaded into the Trilux-Microbeta counter and a delayed read of 10 hours was made. The radioactive signal was measured at 1 min/well. Sinefungin and the internal standard compound were used as tool compounds to determine assay performance.

Sequence of Histone-lysine N-methyltransferase SUV39H2 (Q9H5I1 whole entry): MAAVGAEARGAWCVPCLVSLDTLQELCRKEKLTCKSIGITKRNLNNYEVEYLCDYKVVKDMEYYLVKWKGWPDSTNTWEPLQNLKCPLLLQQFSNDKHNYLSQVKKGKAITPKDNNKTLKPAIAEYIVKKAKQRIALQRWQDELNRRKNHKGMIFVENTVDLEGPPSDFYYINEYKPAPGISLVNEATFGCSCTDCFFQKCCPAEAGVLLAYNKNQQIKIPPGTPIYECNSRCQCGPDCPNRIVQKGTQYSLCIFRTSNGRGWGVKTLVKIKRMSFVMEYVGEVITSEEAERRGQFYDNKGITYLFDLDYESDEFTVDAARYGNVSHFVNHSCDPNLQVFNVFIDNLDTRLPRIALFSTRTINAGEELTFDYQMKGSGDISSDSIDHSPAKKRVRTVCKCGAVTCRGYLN

Compound	IC50
COc1cc(CO)c(-c2cn3ccc(N4CCC(N5CCCS5(=O)=O)CC4)cc3n2)cc1Cl [US10508109, Example 182]	6.97 nM
COc1cc(CO)c(-c2cn3ccc(N4CCC(NC(=O)CCNC(=O)OC(C)(C)C)C4)nc3n2)cc1Br (stereo unspecified) [US10508109, Example 65]	14 nM
COc1cc(CO)c(-c2cn3ccc(N4CCC(NS(=O)(=O)N(C)C)CC4)cc3n2)cc1Cl [US10508109, Example 181]	13.9 nM
COc1cc(CO)c(-c2cn3ccc(N4CCC(NC(C)=O)C4)cc3n2)cc1Cl (stereo unspecified) [US10508109, Example 37]	4.35 nM
COc1cc(CO)c(-c2cn3ccc(N4CCN(CCO)CC4)cc3n2)cc1Cl [US10508109, Example 43]	8.54 nM
COc1cc(CO)c(-c2cn3ccc(N4CCN(CCNC(=O)OC(C)(C)C)CC4)cc3n2)cc1Cl [US10508109, Example 28]	21 nM
COc1cc(CO)c(-c2cn3ccc(N(C)CCNC(=O)OC(C)(C)C)cc3n2)cc1Cl [US10508109, Example 48]	12.4 nM
COc1cc(CO)c(-c2cn3ccc(N4CCN(P(=O)(CO)OC)CC4)cc3n2)cc1Cl (stereo unspecified) [US10508109, Example 203]	1.77 nM
COc1cc(CO)c(-c2cn3ccc(N4CC[C@H](N)C4)cc3n2)cc1Cl [US10508109, Example 47]	8.29 nM
COc1cc(CO)c(-c2cn3ccc(N4CCN(S(=O)(=O)Cc5ccccc5)CC4)cc3n2)cc1Cl [US10508109, Example 179]	32.2 nM
COc1cc(CO)c(-c2cn3ccc(C4=CCN(CCN5CCCCC5)CC4)cc3n2)cc1Cl [US10508109, Example 147]	29.5 nM
COc1cc(CO)c(-c2cn3ccc(N4CCN(S(=O)(=O)C(C)C)CC4)cc3n2)cc1Cl [US10508109, Example 178]	14.3 nM
COc1cc(CO)c(-c2cn3ccc(OC4CCN(S(=O)(=O)c5cccs5)CC4)cc3n2)cc1Cl [US10508109, Example 280]	71.1 nM
COc1cc(CO)c(-c2cn3ccc(N4CCC(NC(N)=O)C4)cc3n2)cc1Cl (stereo unspecified) [US10508109, Example 38]	4.11 nM
CCCS(=O)(=O)NC1CCN(c2ccn3cc(-c4cc(Cl)c(OC)cc4CO)nc3c2)CC1 [US10508109, Example 174]	10.4 nM
COc1cc(CO)c(-c2cn3ccc(N4CCC(N)CC4)nc3n2)cc1Cl [US10508109, Example 42]	79 nM
